Row | melting point [°C] | Compound
1 | 89 to 91 | CC(=O)SCCC(=O)N1c2ccccc2CCC1C(=O)O (stereo not drawn)
2 | 115 to 116 | CCCCOC(=O)Nc1cccc(C(=O)C=CN(C)C)c1
3 | 210 to 220 | Cc1ccccc1C(=O)CN1C(=O)C(NC(=O)Nc2cccc(C(=O)NS(C)(=O)=O)c2)CN(c2ccccc2)c2ccccc21 (stereo not drawn)
4 | 182 to 184 | O=C(O)c1c(NCc2ccccc2)nc2ccc(Br)cc2c1Cl
5 | 180 to 181 | CC(C(=O)O)c1cccc(S(=O)(=O)c2ccccc2Cl)c1O (stereo not drawn)
6 | 137 to 139 | COC(=O)CCC(C)C1CCC2C3C(C(C)=O)CC4CC(C(C)=O)CCC4(C)C3C=CC12C (stereo not drawn)
7 | 105 to 106 | CC(C)c1cc(C2SCC(=O)N2CCCCl)cc(C(C)C)c1O (stereo not drawn)
8 | 173 to 175 | COc1cc2c(cc1Br)-c1c(-c3cccs3)c3c(n1CC2)C(=O)N(C)C(C)(C)CC3
9 | 165 to 166 | O=C(O)c1ccc(OCCCc2ccccc2)cc1
10 | 59 to 59.9 | COc1cc(Br)c(C(C)=O)cc1OC(C)C
11 | 241 to 242 | Cc1cc(C=O)cc(Oc2[nH]c(=O)[nH]c(=O)c2C(C)C)c1
12 | 115 | CNC(=S)C1(c2ccccn2)CCCO1 (stereo not drawn)
13 | 208 to 210 | CN1CCN(c2cc(Cl)cc3[nH]c(=O)n(Cc4ccccc4)c(=O)c23)CC1
14 | 183 | C=NOC(c1ccc(C(=O)O)cc1)c1c(C)nn(C)c1Oc1ccccc1 (stereo not drawn)
15 | 144 to 145 | CC(=O)NS(=O)(=O)c1ccc(-c2c(-c3cccc(F)c3)noc2C)cc1
16 | 231 to 233 | Nc1c(N=O)c(=O)n(CCC2CCCCC2)c(=O)n1CCC1CCCCC1
17 | 256 to 259 | CC(C)(C(=O)O)n1c(=O)[nH]c2ccc(Cl)cc2c1=O
18 | 246 to 249 | Nc1ncnc2c1ncn2OCCCOCP(=O)(O)O
19 | 75 to 76 | N#Cc1cccc2c1NCCC2
20 | 104 to 107 | O=S(=O)(c1ccc(-c2ccc(C(O)CCl)cc2)cc1)C(F)F (stereo not drawn)
21 | 220 to 222 | CNCC(=O)Nc1ccc(C2=NN(C(C)=O)C(C)Cc3cc4c(cc32)OCO4)cc1 (stereo not drawn)
22 | 280 to 285 | CCCCn1cc(C=C2SC(=S)N(CC(=O)O)C2=O)c2ccccc21
23 | 288 to 292 | O=c1[nH]c2cc(Cl)ccc2c(O)c1-c1cccc(Cc2ccc(O)cc2)c1

Row | melting point [°C] | Compound
24 | 225 to 226 | COc1ccc(C=CC(=O)Nc2cccc(C(=O)O)c2)cc1OC
25 | 137 to 138 | CO/N=C(\C)c1cccc(Nc2c3ccccc3nc3occc23)c1
26 | 88 to 89 | COC(=O)CC(C(=O)c1cccc(OCc2ccccc2)c1)c1ccccc1 (racemic)
27 | 190 to 191 | COc1cc(C(=O)O)ccc1C(C)c1c[nH]c2ccc(C(=O)NCCC(C)C)cc12 (stereo not drawn)
28 | 208 to 212 | COc1ccc(-c2nc(C(N)=O)c(N)nc2-c2ccccc2)cn1
29 | 250 to 252 | C/C(=C\c1ccc(C(=O)O)cc1)c1ccc2c(c1)C(C)(C)C(O)CC2(C)C (stereo not drawn)
30 | 175 to 177 | CN1C(=O)C=C[C@]2(C)c3ccc(-c4cccc([N+](=O)[O-])c4)cc3CC[C@@H]12
31 | 182 to 184 | Cc1c(C(=O)O)oc2ccc(Br)c(OC(C)C)c12
32 | 146 to 148 | CC1=CCCC2C1(C)CCC(C)C2(C)Cc1cc(O)ccc1O (stereo not drawn)
33 | 178 to 179 | Cc1c(NC(=O)c2cc3c(s2)C2CCC3C2)cccc1-c1cn(C)c(=O)c(Nc2ccc(C3C(=O)N(C)CCN3C)cc2)n1 (stereo not drawn)
34 | 97 to 99 | CCOC(=O)COc1ccc(C=O)c(O)c1
35 | > 300 | Cn1nc(-c2ccccc2)c2c(=O)[nH]c(N)nc21
36 | 199 to 200 | Cc1nc2c3c(ccn2c1C)C(O)C(O)C(c1ccccc1)N3 (stereo not drawn)
37 | 185 | O=C(Nc1ccc(C[C@H](NS(=O)(=O)N2CCCCCC2)C(=O)O)cc1)c1c(Cl)cncc1Cl
38 | 145 to 146 | COC(=O)c1oc2c(sc3ccccc32)c1OC
39 | 153 to 156 | N=C(Nc1ccc(Cl)cc1)Nc1ncccc1OCc1c(F)ccc(F)c1F
40 | 122 to 124 | CCOc1cc(C(=CC#N)c2ccc(OC)c(F)c2)ccc1OC
41 | 109 to 110 | COc1cc(Cl)cnc1OCC#Cc1ccc(Cl)cc1
42 | 206 to 207 | COc1ccc(CNC(=O)c2cn3c(=O)n(Cc4ccc(Cl)c(Cl)c4)c(=O)cc3s2)cc1
43 | < 30 | Cc1ccc(S(=O)(=O)OC2CCC(C)C2)cc1 (stereo not drawn)
44 | 129 | CC(=O)Nc1ccc(C(=O)c2cc(-c3ccc(S(C)(=O)=O)cc3)c(N3CCOCC3)s2)cc1
45 | 83 to 84 | [N-]=[N+]=N[C@@H](Cc1ccccc1)[C@H](O)CO
46 | 212 | N#Cc1ccc(N2CCN(Cc3cnc4c(c3)NC(=O)C3CCCCN43)CC2)cc1 (stereo not drawn)

Row | melting point [°C] | Compound
47 | 83 to 84 | O=C(NCCCC1OCC(c2cccc3ccccc23)CO1)C(F)(F)F (stereo not drawn)
48 | 69 to 71 | O=[N+]([O-])c1cccc(Cl)c1NCc1ccccc1Cl
49 | 125 to 128 | Oc1c(F)cc(Oc2ncc(C(F)(F)F)cc2F)cc1F
50 | 186 | O=C(O)C1(C(=O)O)C=CC=CN1
51 | 202 to 204 | CCCC[C@]1(CC)CS(=O)(=O)c2cc(OC)c(Br)cc2[C@@H](c2ccccc2)N1O
52 | 205 to 207 | N=C(N)Nc1nc(CSCCNc2ncc(Cc3ccc(Cl)cc3)c(=O)[nH]2)cs1
53 | 71 to 72 | CCOCc1cc2ccccc2oc1=Nc1ccccc1
54 | 298 to 299 | NC(=O)c1nc(N)nc(N)c1-c1ccc(Cl)cc1Cl
55 | 208 to 210 | COc1ccc2cc(-c3ccc(-c4ccccc4)[nH]3)ccc2c1
56 | 107 to 109 | CC(C)(Nc1c(Cl)cccc1[N+](=O)[O-])C(=O)O
57 | 67 to 69 | NN(Cc1ccccc1[N+](=O)[O-])c1ccccc1
58 | 144 to 146 | NC(=NCC(F)(F)F)Nc1ccnc(COCCO)n1
59 | 234 to 238 | CC1(C)CC(NC(=O)NC23CC4CC(CC(C4)C2)C3)CC(C)(C)C1=O
60 | 172 to 173 | COCCNC(=O)Nc1c(C)c(C)c2c(c1C)C(c1ccc(C(C)C)cc1)CO2 (stereo not drawn)
61 | 225 | COc1ccccc1-c1nc(N)ncc1-c1ccc(=O)n(C)n1
62 | 71 to 72.5 | CC(C)Cc1ccc2nc(Cl)cn2n1
63 | 225 to 227 | CC1=C(C(=O)OC(C)C)C(c2cccc([N+](=O)[O-])c2)n2c(n[nH]c2=O)N1 (stereo not drawn)
64 | 140 to 142 | Cn1c2ccc(Cl)cc2c2c3ccccc3c(OCCN3CCOCC3)nc21
65 | 116 to 117 | Clc1ccc(COC(CNc2ccc(Cl)c(Cl)c2)Cn2ccnc2)c(Cl)c1 (stereo not drawn)
66 | 77 to 80 | CCOC(=O)CN(CP(=O)(OSc1cc(Cl)ccc1Cl)OSc1cc(Cl)ccc1Cl)C(=O)C(F)(F)F
67 | 125 to 126 | O=[N+]([O-])c1cccn2nc(SCc3ccccc3)nc12
68 | 178 to 179 | CC(=O)Oc1ccc(-c2c3ccccc3c(Br)c3sc4ccccc4c23)cc1OC(C)=O
69 | 57 to 59 | CCCCCCCCCCCCCCCCCCOc1cc(NC(=O)OCc2ccccc2)cc(OC(C)=O)c1

Row | Compound | melting point [°C]
70 | CN1CC(CO)CC2(OCCO)c3cccc4[nH]cc(c34)CC12 (stereo not drawn) | 178 to 180
71 | O=C(CCl)OCCCCOC(=O)CCl | 74 to 76.5
72 | CCOC(=O)c1nnc2n1-c1sc(Cl)cc1C(c1ccccc1[N+](=O)[O-])=NC2 | 143 to 145
73 | CCCC1(O)CCN(C)C(Cc2ccc(OC)cc2)C1(C)C (stereo not drawn) | 85 to 102
